Data set [1] concerns the target Lipoxygenase. Nature of the data set: Anti-free radical activity: superoxide anions released by lipoxygenase, Luminol probe. The data set is classed as biochemical. As to conditions: mean of 2 assays; lipoxygenase with unsaturated fatty acid substrate. The method, then:
The anti-free radical (anti-FR) activity has been evaluated by biochemical tests to address the potential for scavenging superoxide anion (O2°).
Lipoxygenase was incubated with a specific substrate (unsaturated fatty acid) and the flavonoid esters. Then the rate of released superoxide anions was determined using Luminol luminescent probe to calculate the IC50 (mean of 2 assays).

Data set [2] concerns Human keratinocytes. Kind of data set: UVB cytophotoprotection and anti-inflammatory effect (DNA, LDH and PGE2 released) on UVB-irradiated human keratinocytes. The data set is classed as cell-based. The conditions noted are these: UVB 50 mJ/cm2; for Keratinocytes DNA: irradiated control = 23, not irradiated = 100; for LDH released / PGE2 released: irradiated control = 100, not irradiated = 0. From the text:
The arachidonic cascade is an important mechanism of cutaneous inflammation. This cascade may be induced by several factors, particularly by UVB irradiation. UVB induces the inflammatory response by activation of phospholipase A2 (PLA2), which results in a release of arachidonic acid from cell membranes. Then other specific enzymes (so called cyclo-oxygenases) transform arachidonic acid in active components called prostaglandin (PG) which are secreted from the cells. The fixation of certain prostaglandins (PGE2) on specific skin receptors is followed by redness and swelling on human skin. On cultured human cells, these UVB effects on cell's membrane are associated with a release of a cytoplasmic enzyme into the supernatant medium: Lactate Dehydrogenase or LDH.
Human keratinocytes were inoculated with growth medium (DMEM+FCS) and incubated 3 days at 37° C. and 5% CO2. The growth medium was then exchanged with balanced salt solution containing the ingredient to be tested, the cell culture was irradiated by UVB 50 mJ/cm^2 (DUKE GL40E lamp). After 1 day of incubation at 37° C. with 5% CO2, LDH and PGE2 released in the medium were determined, and cellular DNA was measured using a fluorescent probe to determine the cell viability.
For orientation: Release of lactate dehydrogenase indicates damage to the cell membrane.

Data set [3] in a line: Solubility in hydrophilic and lipophilic solvent by HPLC. The data set is classed as physicochemical. As to conditions: stirring 1 hour at room temperature. Here is the method:
The solubility was determined by HPLC measurement after stirring during 1 hour at room temperature.

The subject of data set [4] is Human fibroblasts. Nature of the data set: UVA cytophotoprotection, anti-oxidative effect (MDA released, cell proteins, GSH) on UVA-irradiated human fibroblasts. The data set is classed as cell-based. As to conditions: UVA 20 J/cm2; for Cell GSH/protein ratio: irradiated control = 78, not irradiated = 100; for MDA released: irradiated control = 100, not irradiated = 0; for Cell proteins: irradiated control = 107, not irradiated = 100. Here is the method:
The cytoprotection against UVA irradiation has been evaluated by a test on human fibroblasts because UVA radiation penetrates through the epidermis until the dermis where it induces oxidative stress, mainly by activation of photosensitising biological components, which catalyse the formation of ROS like anion superoxide, hydrogen peroxide and singlet oxygen, and lipoperoxydation of the cell membrane. These oxidative stress effects are evaluated in vitro due to measuring of the level of released MDA (malondialdehyde) and of intracellular GSH (reduced glutathion) (Morliere P., Moisan A., Santus R., Huppe G., Mazière J. C., Dubertret L.: UV-A induced lipid peroxydation in cultured human fibroblasts Biochim. Biophys. Acta (1991) 1084, 3:261-269).
The lipoperoxides formed after UVA irradiation undergo a decay into malondialdehyde which can form cross-links between many biological molecules like proteins with inhibition of enzymes and nucleic bases with risk of mutagenesis. Glutathione (GSH) is a peptide produced by the cells to protect them from oxidative stress or certain pollutants like mercury or lead. An increase in the GSH level enhances the activity of glutathion-S-transferase, a detoxification enzyme. GSH is evaluated according to the method of Hissin (Hissin P. J., Hilf R. A fluorometric method for determination of oxydised and reduced Glutathione in tissues. Analytical Biochemistry (1977) vol 74, pp 214-226).
Human fibroblasts were inoculated with growth medium (DMEM+FCS) and incubated 3 days at 37° C., with 5% CO2. The growth medium was then exchanged with medium containing an ingredient to be tested and incubated 2 days at 37° C. with CO2=5%. After an exchange of medium with balanced salt solution, the cell culture was irradiated by UVA 20 J/cm^2. Cell proteins and GSH were measured, and MDA released in the supernatant was determined spectrophotometrically.

“And” between values parts separate entries of the source, which are not always exact repeats. Equal values may be shown once.

`CC1OC(OCC2OC(Oc3c(-c4ccc(O)c(O)c4)oc4cc(O)cc(O)c4c3=O)C(O)C(O)C2O)C(O)C(O)C1OC(=O)CCCCCCCCCCCCCCC(=O)O` (stereo not shown) [Rutin hexadecandioate, rutin hexadecandioate]: the “IC50 (w/v), released superoxide anions” value in data set [1] was determined as 0.0036 w/v. Further, in data set [2] (dose 0.003 % w/v), the “Keratinocytes DNA” value turned out to be 24 % against control, the LDH released came to 53 % against control and the PGE2 released was found to be 2 % against control. In data set [2] (dose 0.01 % w/v), the “Keratinocytes DNA” value came out at 39 % against control, the LDH released is 19 % against control and the PGE2 released is 0 % against control. Moreover, in data set [3], the “Solubility in butylene glycol” value is 39.4 g/L and 44.7 mM; the Solubility in octyl-dodecanol was 0.13 g/L and 0.15 mM; the Solubility in water is 0.38 g/L and 0.43 mM. Besides, in data set [4] (dose 0.003 % w/v), the “Cell GSH/protein ratio” value turned out to be 101 % against control, the MDA released stood at 46 % against control and the Cell proteins stood at 129 % against control. In data set [4] (dose 0.01 % w/v), the “Cell GSH/protein ratio” value is recorded as 75 % against control, the MDA released was determined as 21 % against control and the Cell proteins worked out at 178 % against control.

These data come from patent US20070184098A1, “Esters of flavonoids with w-substituted c6-c22 fatty acids” (priority 2003, published 2007).
